Test results published in patent publication US12139475B2, “2-oxindole compounds” (CHEMOCENTRYX, INC., priority 2016, dated 2024).

Each molecule was assayed against T1, CCR(9) (Homo sapiens, UniProt P51686) (assay: Serum chemotaxis assay (MOLT-4 cells, TECK-induced migration, ChemoTX)). Details: MOLT-4 cells in human serum, migration to recombinant human TECK, 90 minutes at 37° C.
T1 construct: MOLT-4 cells were collected by centrifugation at 400×g at room temperature, then suspended at 50 million/ml in human serum; host or cells: MOLT-4
T1 sequence (P51686 1-369): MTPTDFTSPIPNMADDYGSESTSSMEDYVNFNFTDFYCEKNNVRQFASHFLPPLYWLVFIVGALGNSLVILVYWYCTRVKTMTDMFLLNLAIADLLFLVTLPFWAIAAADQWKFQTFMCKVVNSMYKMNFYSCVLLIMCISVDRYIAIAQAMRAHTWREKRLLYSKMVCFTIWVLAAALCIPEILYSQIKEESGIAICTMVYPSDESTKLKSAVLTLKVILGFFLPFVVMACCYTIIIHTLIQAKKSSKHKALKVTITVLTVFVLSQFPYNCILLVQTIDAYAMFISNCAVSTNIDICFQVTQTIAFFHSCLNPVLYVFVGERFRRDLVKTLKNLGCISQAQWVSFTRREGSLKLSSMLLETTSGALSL
Format: cell-based
Method: MOLT-4 cells were obtained from the American Type Culture Collection (Manassas, VA) and cultured in RPMI tissue culture medium supplemented with 10% fetal calf serum (FCS) in a humidified 5% CO2 incubator at 37° C. Recombinant human chemokine proteins TECK was obtained from R&D Systems (Minneapolis, MN). ChemoTX™ chemotaxis microchambers were purchased from Neuro Probe (Gaithersburg, MD). CyQUANT™ cell proliferation kits were purchased from Molecular Probes (Eugene, Oregon). Calcium indicator dye Fluo-4 AM was purchased from Molecular Devices (Mountain View, CA).
A serum chemotaxis assay was used to determine the efficacy of potential receptor antagonists at blocking the migration mediated through chemokine receptors, such as CCR(9). This assay was performed using the ChemoTX® microchamber system with a 5-μm pore-sized polycarbonate membrane. MOLT-4 cells were collected by centrifugation at 400×g at room temperature, then suspended at 50 million/ml in human serum, containing 50 mM HEPES (final pH of 7.2). The compound being tested or an equivalent volume of its solvent (DMSO) was then added to the cell/serum mixture at a final DMSO concentration of 0.125% (v/v), and this mixture was then incubated together at 37° C. for one hour. Separately, recombinant human TECK was diluted with chemotaxis buffer (HBSS+0.1% BSA), generally spanning a range from 0.1 nM to 500 nM, after which 29 μl of diluted chemokine was placed in the lower wells of the ChemoTX® plate. The 5-μm (pore size) polycarbonate membrane was placed onto the plate, and 20 μL of the cell/compound mixture was transferred onto each well of the membrane. The plates were incubated at 37° C. for 90 minutes, after which the polycarbonate membranes were removed and 5 μl of the DNA-intercalating agent CyQUANT (Invitrogen, Carlsbad, CA) was added to the lower wells. The amount of fluorescence, corresponding to the number of migrated cells, was measured using a Spectrafluor Plus plate reader (TECAN, San Jose, CA).
The A2 values were calculated from the following equation, comparing the efficacy of the test compound with that of the DMSO-only control at equi-active chemokine levels: Log(A2)=log[drug(M)]−log[(A′/A)−1] where A reflects the potency of the agonist in the absence of antagonist and A′ reflects the potency of the agonist in the presence of antagonist at a given concentration of drug ([drug(M)]). In Vivo Efficacy Models for Human IBD

SMILES | Chemotaxis A2
CC1(C)CCc2cc(C3(C)C(=O)N(c4cccc(C(=O)O)c4)c4cc(Cl)ccc43)ccc2O1 (stereo not shown) | ++ (500 nM > A2 ≥ 100 nM)
CC(C)(C)c1ccc(C2(C)C(=O)N(c3cccc(C(=O)O)c3)c3ccc(Cl)cc32)cc1F (stereo not shown) | +++ (100 nM > A2)
Cc1ccc2c(c1)C(C)(c1ccc(C(C)(C)C)cc1)C(=O)N2c1cccc(C(=O)O)c1 (stereo not shown) | ++ (500 nM > A2 ≥ 100 nM)
Cc1ccc2c(c1)C(C)(c1ccc(C(C)(C)C)cc1)C(=O)N2c1ccc(C(=O)O)cc1 (stereo not shown) | ++ (500 nM > A2 ≥ 100 nM)
Cc1cc(C(C)(C)C)ccc1C1(C)C(=O)N(c2ccc(C(=O)O)cc2)c2ccc(Cl)cc21 (stereo not shown) | ++ (500 nM > A2 ≥ 100 nM)
CC(C)(C)c1ccc([C@]2(C)C(=O)N(c3ccc(F)c(C(=O)O)c3)c3ccc(Cl)cc32)cc1 | +++ (100 nM > A2)
Cc1ccc(N2C(=O)[C@@](C)(c3ccc(C(C)(C)C)cc3)c3cc(Cl)ccc32)cc1C(=O)O | +++ (100 nM > A2)
Cc1ccc(N2C(=O)[C@@](C)(c3ccc4c(c3)CCC(C)(C)O4)c3cc(Cl)ccc32)cc1C(=O)O | +++ (100 nM > A2)
CC1(C)CCc2cc([C@]3(C)C(=O)N(c4ccc(C(=O)O)cc4)c4ccc(Cl)cc43)ccc2O1 | +++ (100 nM > A2)
CC1(C)CCc2cc([C@]3(C)C(=O)N(c4ccc(F)c(C(=O)O)c4)c4ccc(Cl)cc43)ccc2O1 | +++ (100 nM > A2)
CC1(C)CCc2cc([C@]3(C)C(=O)N(c4ccc(Cl)c(C(=O)O)c4)c4ccc(Cl)cc43)ccc2O1 | +++ (100 nM > A2)
CC1(C)CCc2cc([C@]3(C)C(=O)N(c4ccc(C(=O)O)c(Cl)c4)c4ccc(Cl)cc43)ccc2O1 | +++ (100 nM > A2)
CC1(C)CCc2cc([C@]3(C)C(=O)N(c4cccc(CC(=O)O)c4)c4ccc(Cl)cc43)ccc2O1 | +++ (100 nM > A2)
Cc1ccc2c(c1)[C@](C)(c1ccc3c(c1)CCC(C)(C)O3)C(=O)N2c1cccc(C(=O)O)c1 | +++ (100 nM > A2)
Cc1ccc2c(c1)[C@](C)(c1ccc3c(c1)CCC(C)(C)O3)C(=O)N2c1ccc(C(=O)O)cc1 | +++ (100 nM > A2)
CC1(C)CCc2cc([C@]3(C)C(=O)N(c4ccc(OC(F)(F)F)c(C(=O)O)c4)c4ccc(Cl)cc43)ccc2O1 | +++ (100 nM > A2)
CC1(C)CCc2cc([C@]3(C)C(=O)N(c4ccc(C(=O)O)c(F)c4)c4ccc(Cl)cc43)ccc2O1 | +++ (100 nM > A2)
Cc1cc(N2C(=O)[C@@](C)(c3ccc4c(c3)CCC(C)(C)O4)c3cc(Cl)ccc32)ccc1C(=O)O | +++ (100 nM > A2)
CC1(C)CCc2cc([C@]3(C)C(=O)N(c4ccc(CCC(=O)O)cc4)c4ccc(Cl)cc43)ccc2O1 | +++ (100 nM > A2)
CCc1ccc(N2C(=O)[C@@](C)(c3ccc4c(c3)CCC(C)(C)O4)c3cc(Cl)ccc32)cc1C(=O)O | +++ (100 nM > A2)
COc1cc(N2C(=O)[C@@](C)(c3ccc4c(c3)CCC(C)(C)O4)c3cc(Cl)ccc32)ccc1C(=O)O | +++ (100 nM > A2)
CC1(C)CCc2cc([C@]3(C)C(=O)N(c4cccc(CCC(=O)O)c4)c4ccc(Cl)cc43)ccc2O1 | +++ (100 nM > A2)
CC1(C)CCc2cc([C@]3(C)C(=O)N(Cc4cccc(C(=O)O)c4)c4ccc(Cl)cc43)ccc2O1 | +++ (100 nM > A2)
CC(C(=O)O)c1cccc(N2C(=O)[C@@](C)(c3ccc4c(c3)CCC(C)(C)O4)c3cc(Cl)ccc32)c1 (stereo partly shown) | +++ (100 nM > A2)
CC1(C)CCc2cc([C@]3(C)C(=O)N(Cc4ccccc4C(=O)O)c4ccc(Cl)cc43)ccc2O1 | +++ (100 nM > A2)
CC1(C)CCc2cc([C@]3(C)C(=O)N(c4cccc(C(C)(C)C(=O)O)c4)c4ccc(Cl)cc43)ccc2O1 | +++ (100 nM > A2)
COc1ccc(CN2C(=O)[C@@](C)(c3ccc4c(c3)CCC(C)(C)O4)c3cc(Cl)ccc32)cc1C(=O)O | +++ (100 nM > A2)
CC(c1cccc(C(=O)O)c1)N1C(=O)[C@@](C)(c2ccc3c(c2)CCC(C)(C)O3)c2cc(Cl)ccc21 (stereo partly shown) | +++ (100 nM > A2)

SMILES | Chemotaxis A2
CC1(C)CCc2cc([C@]3(C)C(=O)N(Cc4ccc(F)c(C(=O)O)c4)c4ccc(Cl)cc43)ccc2O1 | +++ (100 nM > A2)
Cc1ccc(CN2C(=O)[C@@](C)(c3ccc4c(c3)CCC(C)(C)O4)c3cc(Cl)ccc32)cc1C(=O)O | +++ (100 nM > A2)
Cc1ccc(CN2C(=O)[C@@](C)(c3ccc4c(c3)CCC(C)(C)O4)c3cc(Cl)ccc32)c(C(=O)O)c1 | +++ (100 nM > A2)
CC1(C)CCc2cc([C@]3(C)C(=O)N(c4cccc(OCC(=O)O)c4)c4ccc(Cl)cc43)ccc2O1 | +++ (100 nM > A2)
CC1(C)CCc2cc([C@]3(C)C(=O)N(Cc4ccc(F)cc4C(=O)O)c4ccc(Cl)cc43)ccc2O1 | +++ (100 nM > A2)
COc1ccc(CN2C(=O)[C@@](C)(c3ccc4c(c3)CCC(C)(C)O4)c3cc(Cl)ccc32)c(C(=O)O)c1 | +++ (100 nM > A2)
CC1(C)CCc2cc([C@]3(C)C(=O)N(c4ccc(OCC(=O)O)cc4)c4ccc(Cl)cc43)ccc2O1 | +++ (100 nM > A2)
CC1(C)CCc2cc([C@]3(C)C(=O)N(c4ccc(CCCC(=O)O)cc4)c4ccc(Cl)cc43)ccc2O1 | +++ (100 nM > A2)
CCOc1ccc(N2C(=O)[C@@](C)(c3ccc4c(c3)CCC(C)(C)O4)c3cc(Cl)ccc32)cc1C(=O)O | +++ (100 nM > A2)
CC(C)Oc1ccc(N2C(=O)[C@@](C)(c3ccc4c(c3)CCC(C)(C)O4)c3cc(Cl)ccc32)cc1C(=O)O | +++ (100 nM > A2)
CC1(C)CCc2cc([C@]3(C)C(=O)N(Cc4ccc(Cl)cc4C(=O)O)c4ccc(Cl)cc43)ccc2O1 | +++ (100 nM > A2)
Cc1cc(CN2C(=O)[C@@](C)(c3ccc4c(c3)CCC(C)(C)O4)c3cc(Cl)ccc32)ccc1C(=O)O | +++ (100 nM > A2)
Cc1ccc(C(=O)O)c(CN2C(=O)[C@@](C)(c3ccc4c(c3)CCC(C)(C)O4)c3cc(Cl)ccc32)c1 | +++ (100 nM > A2)
Cc1cccc(CN2C(=O)[C@@](C)(c3ccc4c(c3)CCC(C)(C)O4)c3cc(Cl)ccc32)c1C(=O)O | +++ (100 nM > A2)
COc1cc(C(=O)O)cc(N2C(=O)[C@@](C)(c3ccc4c(c3)CCC(C)(C)O4)c3cc(Cl)ccc32)c1 | +++ (100 nM > A2)
Cc1cc(C(=O)O)cc(N2C(=O)[C@@](C)(c3ccc4c(c3)CCC(C)(C)O4)c3cc(Cl)ccc32)c1 | +++ (100 nM > A2)
CC1(C)CCc2cc([C@]3(C)C(=O)N(c4ccc(C(F)(F)F)c(C(=O)O)c4)c4ccc(Cl)cc43)ccc2O1 | +++ (100 nM > A2)
Cc1c(CN2C(=O)[C@@](C)(c3ccc4c(c3)CCC(C)(C)O4)c3cc(Cl)ccc32)cccc1C(=O)O | +++ (100 nM > A2)
Cc1cccc(C(=O)O)c1CN1C(=O)[C@@](C)(c2ccc3c(c2)CCC(C)(C)O3)c2cc(Cl)ccc21 | +++ (100 nM > A2)
CC1(C)CCc2cc([C@]3(C)C(=O)N(c4ccccc4CC(=O)O)c4ccc(Cl)cc43)ccc2O1 | +++ (100 nM > A2)
CC(C)COc1ccc(N2C(=O)[C@@](C)(c3ccc4c(c3)CCC(C)(C)O4)c3cc(Cl)ccc32)cc1C(=O)O | +++ (100 nM > A2)
CC1(C)CCc2cc([C@]3(C)C(=O)N(Cc4cc(Cl)ccc4C(=O)O)c4ccc(Cl)cc43)ccc2O1 | +++ (100 nM > A2)
CC1(C)CCc2cc([C@]3(C)C(=O)N(c4cc(Cl)cc(C(=O)O)c4)c4ccc(Cl)cc43)ccc2O1 | +++ (100 nM > A2)
CC1(C)CCc2cc([C@]3(C)C(=O)N(Cc4cccc(Cl)c4C(=O)O)c4ccc(Cl)cc43)ccc2O1 | +++ (100 nM > A2)
COc1cccc(C(=O)O)c1CN1C(=O)[C@@](C)(c2ccc3c(c2)CCC(C)(C)O3)c2cc(Cl)ccc21 | ++ (500 nM > A2 ≥ 100 nM)
COc1cccc(CN2C(=O)[C@@](C)(c3ccc4c(c3)CCC(C)(C)O4)c3cc(Cl)ccc32)c1C(=O)O | +++ (100 nM > A2)
CC1(C)CCc2cc([C@]3(C)C(=O)N(c4cc(F)cc(C(=O)O)c4)c4ccc(Cl)cc43)ccc2O1 | +++ (100 nM > A2)
